Results taken from a melting point compilation (Tetko et al.; mined from patent text by program, amines drawn as free bases though some values may be those of a salt).

Row | melting point [°C] | SMILES
1 | 40 to 41 | N#CC(NCCc1cccs1)c1ccccc1Cl (stereo not drawn)
2 | 187 to 191 | CCCCC(=N)NC(=O)Nc1ccc([N+](=O)[O-])cc1
3 | 200 to 205 | O=C(O)Cc1c(C(=O)c2cc(C(=O)O)no2)[nH]c2ccc(Cl)cc12
4 | 138 to 140 | CNc1c(N)cnn1CCO
5 | 137 to 138 | COc1ccc(C(=O)c2cc3cccc(Br)c3o2)cc1OC
6 | 180 to 183 | Cn1cc(-c2cccc(C(F)(F)F)c2)c(=O)c(-c2cccc(S(C)(=O)=O)c2)c1
7 | 57 to 60 | CCCCCCOc1nc(N)c2ncn(C3CCCCC3)c2n1
8 | > 250 | CNC1Oc2cc(Cl)cc(-c3ccc(Cl)cc3C)c2O1 (stereo not drawn)
9 | 109 to 110 | O=C1OC(Cc2ccccc2)CN1C(=O)c1ccccc1 (stereo not drawn)
10 | 130 | COc1c(NOCc2ccccc2)ccnc1C
11 | 214 to 216 | CS(=O)(=O)Nc1cc(C(c2cc(F)ccc2F)S(=O)(=O)c2ccc(Cl)cn2)c(Cl)cn1 (stereo not drawn)
12 | 145 to 147 | COCc1nc2c([N+](=O)[O-])cc(Br)cc2n1C
13 | 116 to 119 | CCOC(=O)N1C(NC(C)C)=NS(=O)(=O)c2c1sc(C)c2C#N
14 | 220 | N#Cc1c(SSc2cn(-c3c(Cl)cc(C(F)(F)F)cc3Cl)c(Cl)c2C#N)cn(-c2c(Cl)cc(C(F)(F)F)cc2Cl)c1Cl
15 | 215 to 217 | CCCn1c(COCC)nc2c(N)nc3cc(OC4CCN(S(C)(=O)=O)CC4)ccc3c21
16 | 44 | CCOc1cc2c(cc1Cc1ccc3c(c1)OCO3)OCO2
17 | 44 to 47 | CC(C#N)CNc1ccccc1[N+](=O)[O-] (stereo not drawn)
18 | 147 to 150 | CC(=O)Cc1cc([C@]2(c3cccc(-c4cccnc4F)c3)N=C(N)N(C)C2=O)cn1CCCF
19 | 122 to 123 | CON=C(c1ccccc1OCc1ccc(Cl)cc1Cl)n1ccnc1
20 | 204 to 206 | CC1=C(C#N)C(c2cccc([N+](=O)[O-])c2)C(c2nc(CCl)no2)=C(C)N1 (stereo not drawn)
21 | 96 to 99 | COc1cc(N)c(Cl)cc1C(=O)NCC1CCN(CCCCCC(=O)c2ccc(O)cc2O)CC1
22 | 212 to 214 | Cc1ccccc1-c1c(C(=O)O)oc2ccc(Cl)cc12
23 | 233 to 235 | Cc1cc(O)nc2[nH]nc(C)c12
24 | 182 to 183 | O=C(NCc1ccc(F)c(F)c1)c1ccnc(N2CCN(Cc3ccc(F)cc3)C2=O)c1

Row | melting point [°C] | SMILES
25 | 210 to 212 | O=c1[nH]c2cc([N+](=O)[O-])ccc2c(=O)n1N1CC=C(c2ccc(Cl)cc2)CC1
26 | 189 to 190 | COC(Nc1ccccc1)(OC)C1(Br)C=CN=C(C(=O)c2ccccc2)C1 (stereo not drawn)
27 | 73 to 75 | CC1CCN(c2cc(C(C)(C)C)no2)C1=O (stereo not drawn)
28 | 122 to 124 | CCOC(=O)c1sc2nc(C)c(CC)c(=O)n2c1C
29 | 67 to 76 | COc1cc2c(cc1Nc1ncc(Cl)c(Nc3ccc(N4CCOCC4)cc3OC)n1)CCN(CC(=O)N(C)C)CC2
30 | 150 | NC(=O)[C@@H]1[C@H](Nc2c(Br)cnc3[nH]c(-c4cccnc4N4CCOCC4)nc23)[C@H]2C=C[C@@H]1C2
31 | 100 | CCOC(=O)CCN1C(=O)NC(C)(CCc2cc(C(C)(C)C)c(O)c(C(C)(C)C)c2)C1=O (stereo not drawn)
32 | 170 to 176 | O=C(O)c1nc2n(n1)-c1cccnc1N(C1CCCCC1)C2
33 | 200 to 201 | COC(=O)C(Cc1ccc(OCc2ccccc2)cc1)NC(=O)c1cc2ccc(-c3ccc(Cl)cc3)cc2s1 (stereo not drawn)
34 | 100 to 103 | CCn1nc(C(=O)NC2CN(C)CCN(C(=O)c3ccccc3)C2)c2ccccc21 (stereo not drawn)
35 | 260 to 263 | O=C(O)c1ccn(-c2ccc(C(=O)O)c(Cl)c2)n1
36 | > 199 | OCc1ccc(/C=C/c2ccncc2)nc1
37 | 178 to 179 | CCOC(=O)c1c(O)c2cnc(-c3ccccc3)nc2n(CCOC)c1=O
38 | > 260 | Nc1ccc(O)c(C(=O)Nc2cccc3[nH]ccc23)c1
39 | 189 | O=C(NCCc1ccccc1)Nc1ccc([N+](=O)[O-])cc1O
40 | 101 to 102 | CCN(CC)CCCCCCCCNc1nc(N)nc(-c2cc(Cl)ccc2Cl)n1
41 | 138 to 141 | CC(Oc1ccccc1C(C)C)C(=O)OC1CC(O)C=C2C=CC(C)C(CCC3CC(O)CC(=O)O3)C21 (mixture of isomers)
42 | 209 | CCOC(=O)c1nnc(-c2cc3sc(C)c(N(C)S(=O)(=O)c4cccs4)c3[nH]2)s1
43 | 145 to 147 | NC(=O)N1CCC(c2nn(-c3ccc(F)cc3)c3ccccc23)CC1
44 | 153 to 154 | CCCCCC(CC(=O)Nc1cc(C(=O)O)ccc1C(C)(C)C)c1ccc(OC)cc1OC (stereo not drawn)
45 | 51 to 54 | COC(=O)c1cscc1NC(=O)C(F)Cl (stereo not drawn)
46 | 197 | O=C(Nc1ncnc2c1ncn2CC(O)CF)c1ccccc1 (racemic)
47 | 54 | C=CCc1cc(C(C)=O)c(O)cc1OCCCCC
48 | 126 to 128 | COc1ccccc1N(CCN1CCC(C(=O)c2ccc(F)cc2)CC1)S(=O)(=O)c1cccnc1

Row | melting point [°C] | SMILES
49 | 145 to 146 | c1ccc2c(c1)CCc1ccccc1C2CNc1ccncc1
50 | 122 to 127 | CCOCn1c(C(F)(F)F)c(C#N)c2ccc(Cl)c(Cl)c21
51 | 79 | CCCCCCCCCCCCCCCCCCOC(=O)c1ccc(C)c(N)c1
52 | 199 to 201 | CC(C)COc1cc(N(C)C)ccc1C(=O)c1ccccc1C(=O)O
53 | 200 to 202 | c1cnc(NCCc2c[nH]cn2)cn1
54 | 194 to 195 | CC(=O)Nc1cccc(C(=O)NC(C)(C)C)c1
55 | 126 | O=CC1=CC(c2ccccc2)(c2ccccc2)CCC1=O
56 | 220 to 222 | Cc1cccc(-c2nc(NC(=O)c3cccnc3)sc2-c2ccnc(NCc3ccccc3)c2)c1
57 | 40 to 41 | O=C(CCCCC1CCSS1)N1CCSC1 (stereo not drawn)
58 | 190 to 192 | CCc1nnc2c(NC3CC3)nc3ccccc3n12
59 | 122 | Cc1cc(Oc2cc(C(F)(F)F)nn2C)nc(-c2ccsc2)n1
60 | 116 to 117 | COC(=O)c1nc(N=C=S)ccc1Oc1nc(OC)cc(OC)n1
61 | 144 to 147 | COc1cc(C2CCOC2=O)c([N+](=O)[O-])cc1OC (stereo not drawn)
62 | 154 to 156 | CC(C)(C)c1cc(-c2nc3ncccc3o2)cc(C(C)(C)C)c1
63 | 70 to 72 | Cn1nc(-c2cc(C=O)c(Cl)cc2F)c(Cl)c1C(F)(F)F
64 | 175 to 176 | CCN(CC)CCNS(=O)(=O)c1ccc(Nc2cnnc3cc(Cl)ccc23)cc1
65 | 190 to 192 | CNC(=O)c1c(NC(=O)c2cc(C(F)(F)F)nn2-c2ncccc2Cl)ccc2cn[nH]c12
66 | 192 to 193 | CCOC(=O)Cn1c(=O)c2cc(F)c(-c3ncc[nH]3)cc2n(Cc2ccc(Cl)cc2Cl)c1=O
67 | 101 to 103 | COc1ccc(C2=NN(C3CCN(C(=O)[C@H](C)N)CC3)C(=O)[C@@H]3CC=CC[C@H]23)cc1OC
68 | 140 to 142 | O=C1CCc2cc(OCc3ccccc3)c(O)cc21
69 | 193 to 194 | CC(=O)NC(=O)c1cn(Cc2ccccc2)nc1OCc1ccc(OCc2nc(-c3ccco3)oc2C)cc1
70 | 169 to 170 | O=Cc1c2n(c3cc4c(cc13)OCO4)CCC2
71 | > 300 | Nc1nc(N)nc(N(c2ccc(OCOc3ccc(N(c4nc(N)nc(N)n4)c4nc(N)nc(N)n4)cc3)cc2)c2nc(N)nc(N)n2)n1
72 | 88 | CCCCCN(O)C(=O)Nc1ccc(Cl)c(Cl)c1

Row | melting point [°C] | SMILES
73 | 39 to 41 | CC(C)C[C@@H](CO)NC(=O)[C@@H](NC(=O)c1ccc(C=O)o1)C(C)C
74 | 103 to 104 | C=CCOc1cc(-n2c(OC)nc(C(F)(F)F)cc2=O)c(F)cc1Cl
75 | 146 to 147 | CCCOc1cc(NC(=O)C[C@H]2O[C@H](c3cccc(OC)c3OC)c3cc(Cl)ccc3N(CC(C)(C)COC(C)=O)C2=O)cc2cc(C(=O)OC)oc12
76 | 173 to 174 | CCOC(=O)Nc1ccc2c(c1)c(N)nn2C(=O)OCC
77 | 215 to 217 | CCn1c(C)c(C2(c3ccc(OC)cc3OC)OC(=O)c3cc(N(C)C)ccc32)c2ccccc21 (stereo not drawn)
78 | 148 | O=C(O)c1cn(-c2ccnc3ccccc23)c2ccc(F)cc12
79 | 169 | O=C(c1ccccc1)c1ccc([N+](=O)[O-])c(C(=O)O)c1
80 | 166 to 168 | Cc1cc(C)c(Nc2nc(C)ncc2S(=O)(=O)c2ccc(OCc3ccccc3)cc2)c(C)c1
81 | 53 | COC(=O)CC1=C(C)Cc2ccc(F)cc21
82 | 143 to 145 | Cc1nc(-c2ccccc2)cc(-c2cccc([N+](=O)[O-])c2)c1C(=O)NCCN(C)C
83 | 109 to 110 | COC(=O)c1cc(-c2ccc(F)c(C)c2)nn(Cc2ccccc2)c1=O
84 | 138 to 141 | O=S(=O)(NCc1ccncc1)c1ccc(-c2ccccc2Cl)cc1
85 | 145 | COc1ccc(Cn2nc(-c3cccc(Cl)c3)c3ncccc3c2=O)cn1
86 | 72 to 75 | COc1ncccc1C(=O)NCC1CCN(C[C@H]2COc3ccc(Cl)cc3O2)CC1
87 | 98 to 99 | Cc1oc(-c2ccc(C(F)(F)F)cc2)nc1CO
88 | 121 to 123 | CC(=O)OCCN1C(=O)N2CCOC2(c2ccccc2)c2cc(Cl)ccc21 (stereo not drawn)
89 | 43.7 | N#CC=Cc1ccc(-c2ccccc2)cc1
90 | 242 to 246 | CN(C)CCN(Cc1ccccc1)C1=NC(=O)C(=Cc2cccc(-c3cc(F)c(O)c(C45CC6CC(CC(C6)C4)C5)c3)c2)S1
91 | 175 to 180 | N#CCc1cc(=O)c(OCc2ccccc2)cn1Cc1ccccc1
92 | 181 | CNC(N)=Nc1nc(-c2cccc(CNC(C)=O)n2)cs1
93 | 89 to 91 | O=C1OCCN1CCCn1ccnc1[N+](=O)[O-]
94 | 96 to 97.5 | O=[N+]([O-])C(CO)(CO)c1ccccc1
95 | 187 to 188 | Cn1nc2c(N)nc3c(c2c1CCNC(=O)N1CCOCC1)CCCC3

Row | SMILES | melting point [°C]
96 | CN(C)C1CCc2[nH]c3cccc(Cl)c3c2C1 (stereo not drawn) | 212 to 214
97 | CS(=O)(=O)Nc1ccc2c(c1)c(C(=O)C(=O)NC1=CC(=O)OC1)cn2Cc1ccc(C(F)(F)F)cc1 | 267 to 269
98 | Clc1ccc(N2CCC3(CCNCC3)CC2)cc1 | 95.5 to 97.4
